Values joined by “and” are separate entries in the source; they are usually repeats but may differ in a detail not shown here. Identical values can stand only once.
Columns and labels:
[1] = biological target: T1, Calf intestinal alkaline phosphatase (CIAP) (Bos taurus, UniProt P19111); test: Alkaline phosphatase dephosphorylation, free sulfhydryl groups measured with DTNB (Ellman's Reagent) at A412; format: biochemical
T1 construct: purchased Sigma
Procedure: Assays were performed to verify the ability of alkaline phosphatase to dephosphorylate compound (7) to create sulfydryl reactive groups. Calf intestinal alkaline phosphatase (CIAP, Sigma) was diluted in phosphate buffered saline (PBS) to 250 units/ml, and frozen in tubes containing 100 μl aliquots.
A second assay was performed to examine the ability of alkaline phosphatase to dephosphorylate compound (7) to create sulfydryl reactive groups. A 12.5 mM solution of Compound 7 was made (4 mg/ml) and used in the test reactions.
A time course of dephosphorylation was also performed using Compound 7, following the same reaction conditions as in Table 3.

[2] = randomized Phase III human trials: head and neck cancer, lung cancer, carboplatin myelosuppression, rectal cancer; cited from earlier work
[3] = co-administration of reduced glutathione, clinical trial; cited from earlier work
HepG2 = test system: HepG2
Procedure: The compound ((S)-ethyl 2-amino-5-((R)-1-ethoxy-1-oxo-3-(phosphonothio)propan-2-ylamino)-5-oxopentanoate monosodium salt) was tested for intracellular properties. In particular, experiments were conducted to determine the ability of the compound to enter into cells and generate glutathione. HepG2 were incubated with the compound with or without added bovine intestinal alkaline phosphatase (Sigma). Cells were scraped into SSA, vortexed and then spun.

mice = settings: doses up to 5 mmoles/animal
hamsters = settings: doses up to 5 mmoles/animal

T1 sequence (P19111 20-506): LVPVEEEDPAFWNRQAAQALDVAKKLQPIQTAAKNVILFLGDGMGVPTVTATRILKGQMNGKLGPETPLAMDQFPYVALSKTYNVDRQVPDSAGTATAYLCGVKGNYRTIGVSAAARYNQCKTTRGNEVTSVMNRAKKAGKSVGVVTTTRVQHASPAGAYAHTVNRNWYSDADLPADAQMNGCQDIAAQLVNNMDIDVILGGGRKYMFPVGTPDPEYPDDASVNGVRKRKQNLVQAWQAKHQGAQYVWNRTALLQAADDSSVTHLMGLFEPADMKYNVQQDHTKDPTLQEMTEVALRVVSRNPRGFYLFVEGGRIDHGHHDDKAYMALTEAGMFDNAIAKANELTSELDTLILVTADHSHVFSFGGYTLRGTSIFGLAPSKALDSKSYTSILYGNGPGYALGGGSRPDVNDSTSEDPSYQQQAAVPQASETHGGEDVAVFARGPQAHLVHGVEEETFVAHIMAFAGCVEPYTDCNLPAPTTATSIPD

SMILES: NCCCNCCSP(=O)(O)O [AF, S-2-(3-aminopropylamino)ethylphosphorothioic acid, reference compound]
- A412 ([1]; reaction 2: 10 μl 5 mM AF, 890 μl PBS, no CIAP, no DTNB, 10 min room temperature): 0.00
- A412 ([1]; reaction 3: 10 μl 5 mM AF, 25 μl CIAP, 865 μl PBS, no DTNB, 10 min room temperature): 0.00
- A412 ([1]; reaction 4: 20 μl 5 mM AF, 50 μl CIAP (so in the source), 100 μl DTNB, 880 μl PBS, 10 min room temperature): 0.03
- A412 ([1]; reaction 5: 20 μl 5 mM AF, 50 μl CIAP, 100 μl DTNB, 830 μl PBS, 10 min room temperature): 0.34
- toxicity of chemotherapy and radiation therapy [2]: reduce toxicity

SMILES: N[C@@H](CCC(=O)N[C@@H](CS)C(=O)NCC(=O)O)C(=O)O [GSH, glutathione, reference compound]
- A412 ([1]; reaction 1, positive control: 10 μl 2 mM GSH, 100 μl DTNB, 890 μl PBS, no CIAP, 5 min room temperature): 0.35
- neuropathy seen with oxaliplatin [3]: significantly reduce the neuropathy

SMILES: CCOC(=O)[C@H](CSP(=O)([O-])O)NC(=O)CC[C@H](N)C(=O)OCC.[Na+] [Compound 7, (S)-ethyl 2-amino-5-((R)-1-ethoxy-1-oxo-3-(phosphonothio)propan-2-ylamino)-5-oxopentanoate monosodium salt]
- time course of dephosphorylation (free sulfhydryl groups) ([1]; 30 min. period, A412 readings at 3 min. intervals, conditions as in Table 3): time dependent
- dephosphorylation by alkaline phosphatase ([1]; conclusion from Table 3): dephosphorylated by alkaline phosphatase to yield free reactive sulfhydryl groups
- A412 ([1]; with CIAP (50 μl): 10 μl 12.5 mM C7, 100 μl DTNB, 840 μl PBS, 10 min 37° C., listed as C7, monosodium salt): 0.547 and 0.526
- A412 ([1]; without CIAP (negative reaction): 10 μl 12.5 mM C7, 100 μl DTNB, 890 μl PBS, 10 min 37° C., listed as C7, monosodium salt): 0.044 and 0.039
- increase in cellular GSH (HepG2; HepG2, compound and alkaline phosphatase, in the presence of buthionine sulfoximine): greater than 5 fold
- entry into cells (HepG2; HepG2, without prior hydrolysis of the phosphate group by alkaline phosphatase): did not enter cells
- toxicity to cells (HepG2; HepG2 incubated with compound with or without alkaline phosphatase): did not exhibit any evidence of toxicity
- increase in GSH contents (HepG2; HepG2 treated with the compound and alkaline phosphatase): 3.6 fold
- overt toxicity (mice): no overt toxicity
- overt toxicity (hamsters): no overt toxicity
